Assay results published in patent US20240335431A1, “1-H-PYRROLO[2,3-c]PYRIDINE COMPOUNDS” (Acerta Pharma B.V., priority 2023, published 2024).

How the values were obtained:
[1] = system: HEL cells; assay: Proliferation assay, HEL control cell line (CellTiter-Glo, 7 days); format: cell-based, human
Method in brief: (§1)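 Cells seeded at 125 (MOLM-13), 300 (MV4;11), 75 (OCI-AML3) or 200 (HEL) per well were exposed to 3.16-fold compound dilutions (0.1% DMSO) for 7 days at 37° C. Viability by CellTiter-Glo luminescence, normalized to DMSO (100%) and day-0 plate (0%); IC50 from one-site dose-response fit.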

[2] = system: OCI-AML3 cells; assay: Proliferation assay, OCI-AML3 (CellTiter-Glo, 7 days); format: cell-based, human
Method: (§2) The anti-proliferative effect of compounds was tested in human leukaemia cell lines. The cell lines […] and MV4; 11 each harbor an MLL translocation expressing the MLL fusion proteins MLL-AF9 and MLL-AF4, respectively. Each also express the wildtype protein from the second allele. OCI-AML3 cells carrying the NPM1c gene mutation were also tested.
(§3) MOLM-13 and HEL cells were cultured in RPMI 1640 (Gibco) supplemented with 10% FBS (Gibco) and 1% Pen/Strep (Gibco). MV4; 11 cells were cultured in IMDM (Gibco) supplemented with 10% FBS (Gibco) and 1% Pen/Strep (Gibco). OCI-AML3 cells were cultured in MEMa (Gibco) supplemented with 20% FBS (Gibco) and 1% Pen/Strep (Gibco).
(§4) To assess proliferative effects, 125 MOLM-13 cells, 300 MV4; 11 cells, 75 OCI-AML3 cells, and 200 HEL cells were seeded in 40 μL media per well in 384-well ViewPlates (Perkin Elmer, 6007480). Cell seeding numbers were chosen based on growth curves to ensure linear growth throughout the experiments. Test compounds were added at 3.16-fold serial dilutions in DMSO from […] and DMSO content was normalized to 0.1%. Cells were incubated for 7 days at 37° C. and 5% CO2. A day 0 plate was seeded for each cell line and used as a standard control.
(§5) To measure cell viability, CellTiter-Glo 2.0 (Promega, G9242) luminescent growth indicator was used. 10 μL CellTiter-Glo reagent was added per well. Plates were placed on a plate shaker for 2 minutes in the dark and left to incubate off the shaker for another 8 minutes in the dark, for a total of 10 minutes. Plates were read using an EnVision plate reader (Perkin Elmer) using the Luminescence aperture and a measurement time of 0.1 second.
(§6) Data were analyzed in Genedata Screener®. IC50 values were determined by plotting % inhibition versus log compound concentration and using a one site dose response model. Raw data signals were normalized using 0.1% DMSO media only as background control, 0.1% DMSO with cells no compound as 100% viability (maximum signal), and day 0 0.1% DM with cells no compound as 0% viability (minimum signal).

[3] = biological target: Menin protein (Homo sapiens, UniProt O00255, DEL460-519); assay: Menin/MLL fluorescence polarization (FP) assay; format: binding; details: Menin 2 nM, cRho110-Ahx-MBM1/MBM2 peptide 1 nM
Method: Compounds were tested in a biochemical binding assay using Menin protein at 2 nM (N6his-tev-Menin_4i80, PB-20-1459) and the substrate cRho110-Ahx-MBM1/MBM2 peptide (UbiQ, UbiQ-Q20201030; cRh110-Ahx-[…]-QRVPALLLPPG-NH2) at 1 nM.
384 Low volume black plates (Corning #4514) were used. 5 μL/well compound or 3% DMSO was added at 10-fold serial dilutions in DMSO from 10 μM. 5 μL/well cRho110-Ahx-MBM1/MBM2 peptide or binding buffer (50 mM Tris pH 7.5, 50 mM NaCl, 1 mM TCEP, 0.01% BGG, 0.01% Brij-35) was added to all wells. 5 μL/well Menin protein or binding buffer (50 mM Tris pH 7.5, 50 mM NaCl, 1 mM TCEP, 0.01% BGG, 0.01% Brij-35) was added to all wells. Plates were read on an EnVision plate reader (Perkin Elmer) with excitation at 480 nm and emission at 535 nm P+S, and measured every 5 minutes for 180 minutes.
Data were analyzed in Genedata Screener®. IC50 values were determined by plotting % inhibition versus log compound concentration and using a one site dose response model. Raw data signals were normalized using 1% DMSO no Menin as 100% inhibitor control and 1% DMSO with Menin and no inhibitor as 0% inhibitor control.

[4] = Human liver microsomes (HLMs) intrinsic clearance assay; format: in vitro ADME; details: human, microsomes, 1 µM, pH 7.4
[5] = system: MV4;11 cells; assay: Proliferation assay, MV4;11 (CellTiter-Glo, 7 days); format: cell-based, human; details: read-out: MV-4-11 IC50
Method: as §2, §3, §4, §5, §6

[6] = system: MOLM-13 cells; assay: Proliferation assay, MOLM-13 (CellTiter-Glo, 7 days); format: cell-based, human
Method in brief: as §1

[7] = system: MOLM-13 cells; assay: Cell death in MOLM-13 cell line, Compound 56-2 with BCL2 inhibitor venetoclax (CellTiter-Glo, 4 days); format: cell-based, human
Method: Test compound was dispensed using a Tecan compound dispenser into 384-well plates (Microplate 384-well, polypropylene, F-bottom; Greiner Bio-One, #781201) in a ten-by-ten response matrix to assess the combination effects of Menin inhibition (Compound 56-2) together with BCL-2 inhibition (venetoclax) at the following concentrations after subsequent cell seeding in 40 μL of growth media: 10 μM, 3.16 μM, 1 μM, 0.316 μM, 0.1 μM, 0.0316 μM, 0.01 μM, 0.00316 μM, […], and vehicle (DMSO; Sigma-Aldrich, D2650). Cells were seeded at 1000 cells per well and incubated at 37° C. and 5% CO2. MOLM-13 cells were grown in RPM1 1640 (Gibco, #21875091) supplemented with 10% FBS (Gibco; #10091-148) and 1% Pen/Strep (Gibco; #15140-122). After 4 days of compound treatment, plates were placed at room temperature for 15 minutes. 10 μL CellTiter-Glo reagent (Promega, #G9242) was added to the cells and incubated for 10 minutes in the dark on a plate shaker at room temperature. A backseal (Perkin Elmer; #6005199) was added to the plates and luminescence was measured at 0.1 sec/well in an Envision (Perkin Elmer). Data were normalized for each plate so that the average of control wells (DMSO) was set to 0%, and the maximum observed value across the plate was set as 100%. Data fitting was performed using Graphpad Prism and combination effect was assessed using SynergyFinder.

Chain of Menin protein (O00255 with tags, fused parts or gaps DEL460-519): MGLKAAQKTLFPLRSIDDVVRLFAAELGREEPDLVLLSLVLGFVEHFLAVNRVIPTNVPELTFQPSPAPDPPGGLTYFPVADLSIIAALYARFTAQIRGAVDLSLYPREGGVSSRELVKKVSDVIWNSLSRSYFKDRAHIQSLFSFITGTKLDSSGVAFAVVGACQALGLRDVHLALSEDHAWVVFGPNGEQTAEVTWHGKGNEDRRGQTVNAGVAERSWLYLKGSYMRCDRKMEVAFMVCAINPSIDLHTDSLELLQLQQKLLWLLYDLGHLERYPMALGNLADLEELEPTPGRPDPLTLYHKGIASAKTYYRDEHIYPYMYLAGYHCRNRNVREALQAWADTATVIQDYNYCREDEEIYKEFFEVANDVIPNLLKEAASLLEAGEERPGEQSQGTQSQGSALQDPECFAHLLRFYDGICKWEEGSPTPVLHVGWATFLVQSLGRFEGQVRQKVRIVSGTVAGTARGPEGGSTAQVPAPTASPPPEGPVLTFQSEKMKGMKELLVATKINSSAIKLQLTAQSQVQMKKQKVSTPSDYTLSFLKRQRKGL

IC50 [2] | IC50 [3] | HLM CLint [4] | IC50 [5] | IC50 [6] | Structure (SMILES) | IC50 [1] | cell viability as monotherapy (in words) [7]
118 nM | 48 nM | 89 µL/min/mg | 53 nM | 71 nM | Cc1c(C(=O)[C@@H]2CCN(C(=O)[C@H]3NC[C@@H]4C[C@@H]43)[C@@H](C)C2)c2ccncc2n1-c1ccc(F)cc1C(=O)N(CC(F)(F)F)C(C)C (single isomer, unassigned) [Example 53-4, 2-(3-((2R*,4S*)-1-((1S,2S,5R)-3-Azabicyclo[3.1.0]hexane-2-carbonyl)-2-methylpiperidine-4-carbonyl)-2-methyl-1H-pyrrolo[2,3-c]pyridin-1-yl)-5-fluoro-N-isopropyl-N-(2,2,2-trifluoroethyl)benzamide] | > 10000 nM | 
 |  |  |  |  | CC1(C)CCC(CN2CCN(c3ccc(C(=O)NS(=O)(=O)c4ccc(NCC5CCOCC5)c([N+](=O)[O-])c4)c(Oc4cnc5[nH]ccc5c4)c3)CC2)=C(c2ccc(Cl)cc2)C1 [venetoclax, reference compound] |  | cell viability loss was induced
